Test results published in patent publication US20140005126A1, “SCAFFOLD PEPTIDES” (ISOGENICA LTD, priority 2010, published 2014).
Where a SMILES comes first, the peptide text is derived from it. Bridges are numbered along the chain shown (N, C = ends). The star is where a group is joined. Biotin = O=C1N[C@H]2[C@H](CS[C@H]2CCCCC(=O)*)N1

Columns and labels:
Plasma stability assay = format: in vitro ADME; conditions: mouse, 250 μM peptide, 37° C., HPLC area, one phase exponential decay
Procedure: Peptides were resuspended in Molecular Biology Grade water at a concentration of 3 mM. The WW-B1 peptide was added to 300 μl mouse plasma (Harlan) or PBS (control) to a final concentration of 250 μM (2 samples). The samples were incubated at 37° C. 40 μl aliquots were removed from sample A at 0, 12, 14, 16, 18, 20 and 22 hr and from sample B at 0, 2, 4, 6, 8 and 10 hr. To purify each aliquot, double the volume of 100% ethanol (80 μl) was added and incubated at −20° C. for a few hours or overnight. The samples were centrifuged and 80 μl supernatant recovered. 40 μl water with 0.1% TFA was added to each sample and 100 μl was injected onto a SunFire C18 HPLC column. Buffer A (0.1% TFA in Water) was run through the column followed by 10-50% Buffer B (0.1% TFA, 5% water in 95% acetonitrile) over 20 min. The fractions from the column were collected and analysed using an AXIMA mass spectrometer.

[1] = Far-UV CD analysis at different temperatures; format: physicochemical; conditions: 0.2 mg/ml peptide
Procedure: Peptides were resuspended in Molecular Biology Grade water or 10 mM sodium phosphate, pH 7, at a concentration of 200 μM to 1.4 mM. Far-UV scans were measured on an Aviv Model 410 spectrometer measuring at 0.5 nm intervals with a 1 sec averaging time, between 190 and 260 nm using 0.2 mg/ml peptide and a 1 nm bandwidth. Three scans were taken in total at each temperature and the results averaged. The CD scans were plotted using Aviv model 4.10 software, and the data were converted to molar ellipticity (M^−1 cm^−1). […] This far-UV spectrum is characteristic of other small structurally characterised β-sheet structures (Koepf et al. 1999, Protein Science, 8, 841-853; see FIG. 15).

VEGFR2-Fc fusion = biological target: T1, VEGFR2-Fc fusion (Homo sapiens, UniProt P35968); assay: Real time binding assay by biolayer interferometry (Octet Red), steady state analysis
T1 construct: His tag (only implied: capture on TALON beads, detection with penta His-HRP); purchased R&D Systems
Procedure: Alternatively, real-time binding assays between a chemically synthesised WW domain and ligand may be performed using biolayer interferometry with an Octet Red system (Fortebio, Menlo Park, Calif.). Biotinylated WW domain is immobilised to streptavidin biosensors (Fortebio) at a concentration of 50 ng/μl in PBS. Association curves are then detected by incubating WW domain-coated sensors with different concentrations of ligand (e.g. 1 to 100 nM in PBS), and dissociations detected by incubating the sensors in PBS. The dissociation constant for WW domain binding can be determined by steady state analysis.
Real-time binding assays between the peptides and VEGFR2-Fc fusion were performed using biolayer interferometry with an Octet Red system (Fortebio, Menlo Park, Calif.). WW peptides were immobilised on streptavidin biosensors (Fortebio) at a concentration of 2 μg/ml in kinetic buffer. Association curves were then detected by incubating the immobilised peptide with streptavidin-HRP (1 to 100 nM in kinetic buffer), and dissociations were detected by incubating the sensors in kinetic buffer.

[2] = biological target: T2, binding of VEGFR2 to VEGF (Homo sapiens, UniProt P35968); assay: Competition ELISA: binding of VEGFR2 to VEGF-A coated wells in presence of WW domain peptide
T2 construct: His tag (only implied by detection with penta His-HRP); purchased R&D Systems
Procedure: A competition assay was carried out in which binding of VEGFR2 to VEGF-A (VEGF) was competed by the presence of varying amounts of the selected modified WW domain peptide.
50 ng human VEGF (R&D Systems, Abingdon, UK) 1 μg/ml in PBS was coated per well onto a Maxisorp plate at 37° C. for 140 minutes. The wells were then blocked with 100 μl PBS containing 2% BSA for 55 minutes at room temperature. 1.25 ng VEGFR2 was preincubated with WW-B1 fused to maltose binding protein (MBP) in 50 μl PBS for 45 minutes at room temperature. The activity of the WW-B1 peptide was tested at serial dilutions from 10 μM to 156.25 nM. 50 μl 4% BSA in PBS was added to the preincubated VEGFR2 with WW-B1-MBP and the whole mixture was then added to the VEGF coated ELISA plate and incubated at room temperature for 55 minutes. The plate was then washed with 3 washes in PBS-Tween and 2 washes in PBS. Next 50 μl/well penta His-HRP (QIAgen, diluted 1:500 in 2% BSA in PBS) was added and the mixture incubated at room temperature for 55 minutes, before washing as before. ELISA signals were detected using SureBlue TMB peroxidase substrate (Insight biotechnology, Middlesex, UK) at 450 nm.
As a control, the above process was repeated with wild-type Pin1 WW domain peptide replacing WW-B1. The results are illustrated in FIG. 6.

T1 sequence (P35968 with tags, fused parts or gaps): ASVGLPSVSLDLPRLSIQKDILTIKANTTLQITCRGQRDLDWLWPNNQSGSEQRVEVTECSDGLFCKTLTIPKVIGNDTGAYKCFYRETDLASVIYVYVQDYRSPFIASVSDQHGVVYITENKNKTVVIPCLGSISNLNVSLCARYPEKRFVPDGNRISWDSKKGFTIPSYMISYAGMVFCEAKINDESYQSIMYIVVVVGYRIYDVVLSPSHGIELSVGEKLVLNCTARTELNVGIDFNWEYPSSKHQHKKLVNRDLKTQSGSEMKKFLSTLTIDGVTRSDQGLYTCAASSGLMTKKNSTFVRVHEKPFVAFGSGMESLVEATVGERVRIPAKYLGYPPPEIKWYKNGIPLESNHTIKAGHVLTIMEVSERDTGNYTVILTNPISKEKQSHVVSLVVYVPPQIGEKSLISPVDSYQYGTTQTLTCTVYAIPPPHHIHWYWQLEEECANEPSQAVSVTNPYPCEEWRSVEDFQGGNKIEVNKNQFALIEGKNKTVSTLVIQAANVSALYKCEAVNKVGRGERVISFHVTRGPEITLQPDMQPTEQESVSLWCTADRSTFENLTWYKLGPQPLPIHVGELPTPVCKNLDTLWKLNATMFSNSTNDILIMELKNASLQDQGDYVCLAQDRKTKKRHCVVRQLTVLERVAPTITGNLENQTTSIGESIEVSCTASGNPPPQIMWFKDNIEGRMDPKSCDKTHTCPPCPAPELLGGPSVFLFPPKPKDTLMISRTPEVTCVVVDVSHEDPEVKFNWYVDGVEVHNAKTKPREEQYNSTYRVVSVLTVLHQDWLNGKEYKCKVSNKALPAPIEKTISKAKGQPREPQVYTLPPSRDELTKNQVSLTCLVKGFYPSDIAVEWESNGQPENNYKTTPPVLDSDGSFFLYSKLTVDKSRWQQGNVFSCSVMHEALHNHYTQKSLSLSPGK
T2 sequence (P35968 with tags, fused parts or gaps): as above

half-life at 250 μM (Plasma stability assay) [h]	structure after heating to 95° C. and cooling to 25° C. [1]	CD peak at 227-231 nm at 95° C. (folding state) [1]	Kd (VEGFR2-Fc fusion; peptide on streptavidin biosensors, 2 μg/ml in kinetic buffer, steady state analysis (Example 4), read-out: dissociation constant / affinity for VEGFR2) [nM]	binding affinity to VEGFR2 compared with non-cyclised WW-B1 (VEGFR2-Fc fusion; tested as set out in Example 2)	binding affinity for VEGFR2 (concluded from competition assay) ([2]; control replacing WW-B1)	effect on the binding of VEGFR2 to VEGF ([2]; control replacing WW-B1 in the competition ELISA)	Compound
6.2	able to reform its structure	unfolding	–	–	–	–	CC[C@H](C)[C@H](NC(=O)[C@H](CC(=O)O)NC(=O)[C@H](CC(N)=O)NC(=O)[C@@H](NC(=O)[C@H](Cc1ccc(O)cc1)NC(=O)[C@H](CC(C)C)NC(=O)[C@@H](NC(=O)[C@H](CCCNC(=N)N)NC(=O)CNC(=O)[C@@H]1CCCN1C(=O)[C@H](CO)NC(=O)[C@H](CO)NC(=O)[C@H](Cc1c[nH]c2ccccc12)NC(=O)[C@H](CCSC)NC(=O)[C@H](CCCCN)NC(=O)[C@H](Cc1ccc(O)cc1)NC(=O)[C@H](Cc1c[nH]c2ccccc12)NC(=O)CNC(=O)[C@@H]1CCCN1C(=O)[C@@H]1CCCN1C(=O)[C@H](CC(C)C)NC(=O)[C@H](CCCCN)NC(=O)[C@H](CCC(=O)O)NC(=O)[C@H](CCC(=O)O)NC(=O)[C@H](CC(=O)O)NC(=O)[C@H](C)NC(=O)[C@H](CCSC)NC(=O)CCCC[C@@H]1SC[C@@H]2NC(=O)N[C@@H]21)C(C)C)C(C)C)C(=O)N[C@H](C(=O)N[C@@H](Cc1c[nH]cn1)C(=O)N[C@@H](C)C(=O)N[C@@H](Cc1c[nH]cn1)C(=O)N[C@@H](CCCNC(=N)N)C(=O)N[C@@H](Cc1c[nH]c2ccccc12)C(=O)N[C@@H](CCC(=O)O)C(=O)N[C@@H](CCCNC(=N)N)C(=O)N1CCC[C@H]1C(=O)N[C@@H](CO)C(=O)NCC(N)=O)[C@@H](C)O [WW-B1] (Biotin-MADEEKLPPGWYKMWSSPGRVLYVNDITHAHRWERPSG-NH2; N-terminus and C-terminus assumed)
–	able to reform its structure	unfolding	31	comparable activity	–	–	CC[C@H](C)[C@@H]1NC(=O)[C@H](CC(=O)O)NC(=O)[C@H](CC(N)=O)NC(=O)[C@H](C(C)C)NC(=O)[C@H](Cc2ccc(O)cc2)NC(=O)[C@H](CC(C)C)NC(=O)[C@H](C(C)C)NC(=O)[C@H](CCCNC(=N)N)NC(=O)CNC(=O)[C@@H]2CCCN2C(=O)[C@H](CO)NC(=O)[C@H](CO)NC(=O)[C@H](Cc2c[nH]c3ccccc23)NC(=O)[C@H](CCSC)NC(=O)[C@H](CCCCN)NC(=O)[C@H](Cc2ccc(O)cc2)NC(=O)[C@H](Cc2c[nH]c3ccccc23)NC(=O)CNC(=O)[C@@H]2CCCN2C(=O)[C@@H]2CCCN2C(=O)[C@H](CC(C)C)NC(=O)[C@@H](NC(=O)[C@H](CCC(=O)O)NC(=O)[C@H](CCC(=O)O)NC(=O)[C@H](CC(=O)O)NC(=O)CCCC[C@@H]2SC[C@@H]3NC(=O)N[C@@H]32)CCCCNC(=O)CC[C@@H](C(=O)NCC(N)=O)NC(=O)[C@@H]2CCCN2C(=O)[C@H](CCCNC(=N)N)NC(=O)[C@H](CCC(=O)O)NC(=O)[C@H](Cc2c[nH]c3ccccc23)NC(=O)[C@H](CCCNC(=N)N)NC(=O)[C@H](Cc2c[nH]cn2)NC(=O)[C@H](C)NC(=O)[C@H](Cc2c[nH]cn2)NC(=O)[C@H]([C@@H](C)O)NC1=O [cyclised WW-B1] (Biotin-DEEKLPPGWYKMWSSPGRVLYVNDITHAHRWERPEG-NH2; lactam 4-35)
–	–	–	–	–	negligible	essentially no effect	MADEEKLPPGWEKRMSRSSGRVYYFNHITNASQWERPSG [wild-type Pin1 WW domain, peptide fragment of the human Pin1 protein, used as control]
